Experimental data taken from article doi:10.1101/2023.12.14.571638v1, “Structural basis of a regulatory switch in mammalian complex I” (biorxiv, 2023).

Columns and labels:
[1] = target: T1, complex I (CI), NADH-binding site (Bos taurus, UniProt P25708); experiment: NADH:APAD+ oxidoreduction, absorbance; format: biochemical; settings: 500 µM APAD+, 100 µM NADH, 500 nM piericidin A; pH 7.5, 32 °C
T1 construct: gene NDUFV1; native 45-subunit complex from heart mitochondria, purified in LMNG, in proteoliposomes; with NADH dehydrogenase [ubiquinone] flavoprotein 2, mitochondrial; NADH-ubiquinone oxidoreductase 75 kDa subunit, mitochondrial; NADH dehydrogenase [ubiquinone] iron-sulfur protein 2, mitochondrial; NADH dehydrogenase [ubiquinone] iron-sulfur protein 7, mitochondrial
T1 sequence (P25708 21-464, one chain of several): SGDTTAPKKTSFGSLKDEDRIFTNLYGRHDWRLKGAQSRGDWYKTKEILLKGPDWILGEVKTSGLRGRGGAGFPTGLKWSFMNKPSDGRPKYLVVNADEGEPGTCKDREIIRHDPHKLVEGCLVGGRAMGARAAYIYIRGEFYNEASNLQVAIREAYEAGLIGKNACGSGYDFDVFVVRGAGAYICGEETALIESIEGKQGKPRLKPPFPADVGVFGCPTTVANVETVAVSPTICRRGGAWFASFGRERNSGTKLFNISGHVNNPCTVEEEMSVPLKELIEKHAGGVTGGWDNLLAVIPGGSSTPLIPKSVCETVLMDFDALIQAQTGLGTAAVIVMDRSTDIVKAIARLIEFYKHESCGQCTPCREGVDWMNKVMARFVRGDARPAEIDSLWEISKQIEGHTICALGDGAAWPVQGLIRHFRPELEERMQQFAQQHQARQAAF

[2] = target: T1, complex I (CI), NADH-binding site; experiment: NADH oxidation by CI-PLs with AOX, absorbance; format: biochemical; settings: 200 µM NADH, ubiquinone-10, AOX; pH 7.5, 32 °C
[3] = target: T2, complex I (CI), ubiquinone-10-binding site (Bos taurus, UniProt P03887+P17694+P42026); experiment: cryoEM structure in proteoliposomes; settings: CI-out-closed state, 2.5 Å; native substrate, deep-bound
T2 construct: gene NDUFS2; native 45-subunit complex from heart mitochondria, purified in LMNG, reconstituted in proteoliposomes (CI-PLs); natural variant NDUFS2-129 modelled as Arg; with NADH-ubiquinone oxidoreductase chain 3; NADH-ubiquinone oxidoreductase chain 6; NADH dehydrogenase [ubiquinone]; 1 alpha subcomplex subunit 9, mitochondrial
T2 sequence (P17694 34-463): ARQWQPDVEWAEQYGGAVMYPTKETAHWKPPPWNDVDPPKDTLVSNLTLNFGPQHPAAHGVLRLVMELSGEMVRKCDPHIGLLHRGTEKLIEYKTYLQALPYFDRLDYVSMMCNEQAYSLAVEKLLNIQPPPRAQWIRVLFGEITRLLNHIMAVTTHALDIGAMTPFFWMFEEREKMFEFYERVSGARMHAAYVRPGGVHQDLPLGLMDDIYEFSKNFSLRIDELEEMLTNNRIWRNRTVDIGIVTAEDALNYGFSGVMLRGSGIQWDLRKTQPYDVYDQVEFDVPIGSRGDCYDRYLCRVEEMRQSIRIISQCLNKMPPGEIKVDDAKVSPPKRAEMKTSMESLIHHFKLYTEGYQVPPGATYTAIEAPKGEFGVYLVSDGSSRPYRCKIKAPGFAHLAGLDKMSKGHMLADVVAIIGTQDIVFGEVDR
T2 sequence (P03887 whole entry): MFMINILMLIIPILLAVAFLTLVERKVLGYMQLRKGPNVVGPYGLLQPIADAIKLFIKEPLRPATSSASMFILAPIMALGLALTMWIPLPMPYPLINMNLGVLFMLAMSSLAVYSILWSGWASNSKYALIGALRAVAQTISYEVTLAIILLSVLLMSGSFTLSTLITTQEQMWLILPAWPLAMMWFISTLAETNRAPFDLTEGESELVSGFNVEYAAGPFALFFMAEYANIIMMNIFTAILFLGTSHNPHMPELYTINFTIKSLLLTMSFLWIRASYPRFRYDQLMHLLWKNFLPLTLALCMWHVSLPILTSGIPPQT
T2 sequence (P42026 38-216): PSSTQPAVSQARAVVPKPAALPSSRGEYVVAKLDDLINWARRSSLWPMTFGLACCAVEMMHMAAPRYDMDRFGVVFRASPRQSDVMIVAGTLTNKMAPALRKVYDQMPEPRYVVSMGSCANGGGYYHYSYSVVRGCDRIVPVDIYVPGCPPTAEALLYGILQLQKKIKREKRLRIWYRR

Structure (SMILES): CC(=O)c1ccc[n+]([C@@H]2O[C@H](COP(=O)([O-])OP(=O)(O)OC[C@H]3O[C@@H](n4cnc5c(N)ncnc54)[C@H](O)[C@@H]3O)[C@@H](O)[C@H]2O)c1 [APAD^+]
- NADH:APAD+ oxidoreduction, absorbance [1]: Complex I concentration in CI-PLs was determined using the NADH:APAD^+ oxidoreduction reaction

Structure (SMILES): NC(=O)C1=CN([C@@H]2O[C@H](COP(=O)(O)OP(=O)(O)OC[C@H]3O[C@@H](n4cnc5c(N)ncnc54)[C@H](O)[C@@H]3O)[C@@H](O)[C@H]2O)C=CC1 [NADH]
- NADH oxidation by CI-PLs with AOX, absorbance [2]: NADH:O2 oxidoreduction rates were measured as the rates of NADH oxidation

Structure (SMILES): COC1=C(OC)C(=O)C(C/C=C(\C)CC/C=C(\C)CC/C=C(\C)CC/C=C(\C)CC/C=C(\C)CC/C=C(\C)CC/C=C(\C)CC/C=C(\C)CC/C=C(\C)CCC=C(C)C)=C(C)C1=O [ubiquinone-10]
- cryoEM structure in proteoliposomes [3]: The CI-in/out-closed structures exhibit well-ordered density for ubiquinone-10, inserted fully into its active site
